Each compound was assayed against human P2X3 receptor (Homo sapiens (Human), UniProt P56373) (assay: P2X3 receptor inhibition, ATP-evoked Fluo-3 calcium fluorescence (FDSS 3000)). Conditions: C6BU-1 cell transfected with human P2X3 receptor gene; ATP-evoked Fluo-3 fluorescence.
Sequence of human P2X3 receptor (P56373 whole entry): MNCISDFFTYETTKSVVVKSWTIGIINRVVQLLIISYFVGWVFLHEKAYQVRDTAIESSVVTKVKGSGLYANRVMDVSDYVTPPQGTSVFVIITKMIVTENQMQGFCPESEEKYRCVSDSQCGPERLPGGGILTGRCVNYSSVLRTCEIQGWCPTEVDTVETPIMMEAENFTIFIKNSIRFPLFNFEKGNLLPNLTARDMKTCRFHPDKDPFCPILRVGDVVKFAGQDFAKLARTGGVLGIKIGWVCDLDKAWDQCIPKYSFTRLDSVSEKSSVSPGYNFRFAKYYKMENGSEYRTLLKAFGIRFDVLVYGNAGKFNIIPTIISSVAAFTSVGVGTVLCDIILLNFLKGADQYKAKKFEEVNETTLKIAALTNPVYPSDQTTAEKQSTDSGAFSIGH
Format: cell-based
How it was run: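 C6BU-1 cells stably transfected with human P2X3, loaded with 4 μM Fluo-3-AM for 1 h at 37 °C in HEPES buffer pH 7.5 with probenecid. Compound added 5 min before 40 nM ATP solution; fluorescence followed 3 min. IC50 from ratio of peak post-ATP to baseline fluorescence.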
With `Cc1cc(-c2ccc(N3C(=O)C(O)=C(C(=O)C(C)C)C3c3ccccc3OCC3OCCO3)cc2)cs1` (stereo not drawn) [Compound I-500] the IC50 was 12 nM.
For `Cc1nc(-c2ccc(N3C(=O)C(O)=C(C(=O)C(C)C)C3c3ccccc3OCC3OCCO3)cc2)no1` (stereo not drawn) [Compound I-501], the IC50 was 52 nM.
For `Cc1nc(-c2ccc(N3C(=O)C(O)=C(C(=O)C(C)C)C3c3ccccc3OC3CCOCC3)cc2)no1` (stereo not drawn) [Compound I-502], the IC50 was 67 nM.
Compound `Cc1nc(-c2ccc(N3C(=O)C(O)=C(C(=O)C(C)C)C3c3ccccc3OC3CCCC3)cc2)no1` (stereo not drawn) [Compound I-503] has an IC50 of 17 nM.
Compound `Cc1ccc(-c2ccc(N3C(=O)C(O)=C(C(=O)CC(C)C)C3c3cccnc3C(=O)OC(C)C)cc2)s1` (stereo not drawn) [Compound I-504] has an IC50 of 238 nM.
`Cc1cc(-c2ccc(N3C(=O)C(O)=C(C(=O)CC(C)C)C3c3ccccc3C(=O)N3CCOCC3)cc2)cs1` (stereo not drawn) [Compound I-505] was tested, and the IC50 was 168 nM.
With `Cc1ccc(-c2ccc(N3C(=O)C(O)=C(C(=O)CC(C)C)C3c3ccccc3C(=O)N3CCOCC3)cc2)o1` (stereo not drawn) [Compound I-506] the IC50 was 112 nM.
Work on `Cc1cc(-c2ccc(N3C(=O)C(O)=C(C(=O)C(C)C)C3c3ccccc3S(C)(=O)=O)cc2)cs1` (stereo not drawn) [Compound I-507] yielded an IC50 of 101 nM.
`Cc1nc(-c2ccc(N3C(=O)C(O)=C(C(=O)C(C)C)C3c3ccccc3OCC#N)cc2)no1` (stereo not drawn) [Compound I-508] was tested, and the IC50 was 133 nM.
For `CSc1ccc(N2C(=O)C(O)=C(C(=O)C(C)C)C2c2ccccc2OCC#N)cc1` (stereo not drawn) [Compound I-509], the IC50 was 247 nM.
`CSc1ccc(N2C(=O)C(O)=C(C(=O)CC(C)C)C2c2ccccc2OCC#N)cc1` (stereo not drawn) [Compound I-511] showed an IC50 of 117 nM.
`CC(C)Oc1ccccc1C1C(C(=O)C2CCCC2)=C(O)C(=O)N1c1ccc(-c2ccon2)cc1` (stereo not drawn) [Compound I-512] gave an IC50 of 62 nM.
`CC(C)COc1ccccc1C1C(C(=O)C2CCCC2)=C(O)C(=O)N1c1ccc(-c2ccon2)cc1` (stereo not drawn) [Compound I-513] gave an IC50 of 65 nM.
Work on `CN(C)C(=O)c1ccccc1C1C(C(=O)C2CCCC2)=C(O)C(=O)N1c1ccc(-c2ccsc2)cc1` (stereo not drawn) [Compound I-514] yielded an IC50 of 138 nM.
`CCOc1ncccc1C1C(C(=O)C2CCCC2)=C(O)C(=O)N1c1ccc(-c2ccsc2)cc1` (stereo not drawn) [Compound I-515] gave an IC50 of 37 nM.
`COCc1ccccc1C1C(C(=O)C2CCCC2)=C(O)C(=O)N1c1ccc(-c2ccsc2)cc1` (stereo not drawn) [Compound I-516] showed an IC50 of 33 nM.
`COCCOc1ncccc1C1C(C(=O)C2CCCC2)=C(O)C(=O)N1c1ccc(-c2ccsc2)cc1` (stereo not drawn) [Compound I-517] was tested, and the IC50 was 26 nM.
`Cc1nc(-c2ccc(N3C(=O)C(O)=C(C(=O)C4CCCC4)C3c3ccccc3OC(C)C)cc2)no1` (stereo not drawn) [Compound I-518] showed an IC50 of 87 nM.
`Cc1nc(-c2ccc(N3C(=O)C(O)=C(C(=O)C4CCCC4)C3c3ccccc3OCC(C)C)cc2)no1` (stereo not drawn) [Compound I-519] showed an IC50 of 33 nM.
`COCCOc1ncccc1C1C(C(=O)C2CCCC2)=C(O)C(=O)N1c1ccc(-c2ccon2)cc1` (stereo not drawn) [Compound I-521] gave an IC50 of 554 nM.
Work on `COCCOc1ncccc1C1C(C(=O)C2CCCC2)=C(O)C(=O)N1c1ccc(-c2noc(C)n2)cc1` (stereo not drawn) [Compound I-523] yielded an IC50 of 351 nM.
For `Cc1nc(-c2ccc(N3C(=O)C(O)=C(C(=O)C(C)C)C3c3cccnc3N3CCOCC3)cc2)no1` (stereo not drawn) [Compound I-524], the IC50 was 696 nM.
`CC(C)C(=O)C1=C(O)C(=O)N(c2ccc(-c3ccsc3)cc2)C1c1cccnc1N1CCOCC1` (stereo not drawn) [Compound I-525] showed an IC50 of 18 nM.
With `Cc1cc(-c2ccc(N3C(=O)C(O)=C(C(=O)C(C)C)C3c3ccccc3CC(=O)N3CCCC3)cc2)cs1` (stereo not drawn) [Compound I-526] the IC50 was 219 nM.
For `COCc1ccccc1C1C(C(=O)C(C)C)=C(O)C(=O)N1c1ccc(C2=CCCC2)cc1` (stereo not drawn) [Compound I-527], the IC50 was 39 nM.
For `COCc1ccccc1C1C(C(=O)C(C)C)=C(O)C(=O)N1c1ccc(C2CCCC2)cc1` (stereo not drawn) [Compound I-528], the IC50 was 70 nM.
Work on `CCNC(=O)c1ncccc1C1C(C(=O)CC(C)C)=C(O)C(=O)N1c1ccc(-c2ccc(C)s2)cc1` (stereo not drawn) [Compound I-530] yielded an IC50 of 237 nM.
`COc1ccccc1C1C(C(=O)C(C)C)=C(O)C(=O)N1c1ccc(-c2csnn2)cc1` (stereo not drawn) [Compound I-531] gave an IC50 of 286 nM.
In the case of `COCCOc1ccccc1C1C(C(=O)C(C)C)=C(O)C(=O)N1c1ccc(-c2csnn2)cc1` (stereo not drawn) [Compound I-532], the IC50 is reported as 204 nM.
In the case of `CC(C)Oc1ccccc1C1C(C(=O)C(C)C)=C(O)C(=O)N1c1ccc(-c2csnn2)cc1` (stereo not drawn) [Compound I-533], the IC50 is reported as 33 nM.
`CNC(=O)CCc1ccccc1C1C(C(=O)C(C)C)=C(O)C(=O)N1c1ccc(-c2ccc(C)o2)cc1` (stereo not drawn) [Compound I-535] gave an IC50 of 49 nM.
Work on `Cc1ccc(-c2ccc(N3C(=O)C(O)=C(C(=O)C(C)C)C3c3ccccc3CCC(N)=O)cc2)o1` (stereo not drawn) [Compound I-536] yielded an IC50 of 32 nM.
Compound `Cc1ccc(-c2ccc(N3C(=O)C(O)=C(C(=O)C(C)C)C3c3ccccc3CCC(=O)N(C)C)cc2)o1` (stereo not drawn) [Compound I-537] has an IC50 of 83 nM.
With `Cc1ccc(-c2ccc(N3C(=O)C(O)=C(C(=O)C(C)C)C3c3ccccc3CCC(=O)NC(C)C)cc2)o1` (stereo not drawn) [Compound I-538] the IC50 was 119 nM.
Work on `Cc1nc(-c2ccc(N3C(=O)C(O)=C(C(=O)C(C)C)C3c3ccccc3COC(C)C)cc2)no1` (stereo not drawn) [Compound I-539] yielded an IC50 of 62 nM.
`CC(C)OCc1ccccc1C1C(C(=O)C(C)C)=C(O)C(=O)N1c1ccc(-c2ccon2)cc1` (stereo not drawn) [Compound I-540] gave an IC50 of 496 nM.
`CC(C)OCc1ccccc1C1C(C(=O)C(C)C)=C(O)C(=O)N1c1ccc(-c2ccsc2)cc1` (stereo not drawn) [Compound I-541] gave an IC50 of 10 nM.
In the case of `CCOCOc1ccccc1C1C(C(=O)C(C)C)=C(O)C(=O)N1c1ccc(-c2noc(C)n2)cc1` (stereo not drawn) [Compound I-542], the IC50 is reported as 58 nM.
In the case of `CCOCOc1ccccc1C1C(C(=O)C(C)C)=C(O)C(=O)N1c1ccc(-c2ccon2)cc1` (stereo not drawn) [Compound I-543], the IC50 is reported as 240 nM.
For `CCOCOc1ccccc1C1C(C(=O)C(C)C)=C(O)C(=O)N1c1ccc(-c2ccsc2)cc1` (stereo not drawn) [Compound I-544], the IC50 was 8 nM.
`CCOCOc1ccccc1C1C(C(=O)C(C)C)=C(O)C(=O)N1c1ccc(-c2nc(C)no2)cc1` (stereo not drawn) [Compound I-545] gave an IC50 of 142 nM.
With `Cc1cc(-c2ccc(N3C(=O)C(O)=C(C(=O)C(C)C)C3c3ccccc3C(=O)N3CCOCC3)cc2)cs1` (stereo not drawn) [Compound I-546] the IC50 was 395 nM.
For `COCCN(C)C(=O)c1ccccc1C1C(C(=O)C(C)C)=C(O)C(=O)N1c1ccc(-c2csc(C)c2)cc1` (stereo not drawn) [Compound I-547], the IC50 was 217 nM.
Compound `Cc1ccc(-c2ccc(N3C(=O)C(O)=C(C(=O)C(C)C)C3c3ccccc3S(C)(=O)=O)cc2)o1` (stereo not drawn) [Compound I-548] has an IC50 of 77 nM.
Work on `Cc1ccc(-c2ccc(N3C(=O)C(O)=C(C(=O)C(C)C)C3c3ccccc3C(=O)N3CCOCC3)cc2)o1` (stereo not drawn) [Compound I-549] yielded an IC50 of 213 nM.
In the case of `COCCOc1ncccc1C1C(C(=O)CC(C)C)=C(O)C(=O)N1c1ccc(SC)cc1` (stereo not drawn) [Compound I-550], the IC50 is reported as 254 nM.
For `CC(C)C(=O)C1=C(O)C(=O)N(c2ccc(-c3ccsc3)cc2)C1c1ccccc1OCC1OCCO1` (stereo not drawn) [Compound I-551], the IC50 was 5 nM.
`Cc1noc(-c2ccc(N3C(=O)C(O)=C(C(=O)C(C)C)C3c3ccccc3COC(C)C)cc2)n1` (stereo not drawn) [Compound I-552] gave an IC50 of 186 nM.
Compound `COc1ccccc1C1C(C(=O)c2cc[nH]c2)=C(O)C(=O)N1c1ccc(-c2csc(C)c2)cc1` (stereo not drawn) [Compound I-553] has an IC50 of 337 nM.
In the case of `Cc1nc(-c2ccc(N3C(=O)C(O)=C(C(=O)c4cc[nH]c4)C3C3CCCCC3)cc2)no1` (stereo not drawn) [Compound I-555], the IC50 is reported as 579 nM.
In the case of `COC(=O)C(C)(C)CC(=O)C1=C(O)C(=O)N(c2ccc(-c3ccsc3)cc2)C1c1ccccc1OC` (stereo not drawn) [Compound I-556], the IC50 is reported as 32 nM.
`COc1ccccc1C1C(C(=O)CC(C)(C)C(=O)O)=C(O)C(=O)N1c1ccc(-c2ccsc2)cc1` (stereo not drawn) [Compound I-557] gave an IC50 of 444 nM.
For `CSc1ccccc1C1C(C(=O)C(C)C)=C(O)C(=O)N1c1ccc(-c2ccsc2)cc1` (stereo not drawn) [Compound I-558], the IC50 was 8 nM.
Compound `CSc1ccccc1C1C(C(=O)C(C)C)=C(O)C(=O)N1c1ccc(-c2csc(C)c2)cc1` (stereo not drawn) [Compound I-559] has an IC50 of 40 nM.
Compound `COc1ccc(S(=O)(=O)C2=C(O)C(=O)N(c3ccc(-c4noc(C)n4)cc3)C2C2CCCCC2)cc1` (stereo not drawn) [Compound I-560] has an IC50 of 275 nM.
For `COCCOc1ccccc1C1C(S(=O)(=O)C(C)C)=C(O)C(=O)N1c1ccc(-c2ccsc2)cc1` (stereo not drawn) [Compound I-563], the IC50 was 42 nM.
`CC(C)C(=O)C1=C(O)C(=O)N(c2ccc(-c3ccsc3)cc2)C1c1cccnc1OCCCO` (stereo not drawn) [Compound I-564] was tested, and the IC50 was 18 nM.
Work on `COCCCOc1ncccc1C1C(C(=O)C(C)C)=C(O)C(=O)N1c1ccc(-c2ccsc2)cc1` (stereo not drawn) [Compound I-565] yielded an IC50 of 13 nM.
Compound `CC(C)C(=O)C1=C(O)C(=O)N(c2ccc(-c3ccoc3)cc2)C1c1cccnc1OCCCO` (stereo not drawn) [Compound I-566] has an IC50 of 61 nM.
With `COCCCOc1ncccc1C1C(C(=O)C(C)C)=C(O)C(=O)N1c1ccc(-c2ccoc2)cc1` (stereo not drawn) [Compound I-567] the IC50 was 57 nM.
`Cc1ccc(-c2ccc(N3C(=O)C(O)=C(C(=O)C(C)C)C3c3cccnc3OCCCO)cc2)s1` (stereo not drawn) [Compound I-568] gave an IC50 of 66 nM.
Compound `COCCCOc1ncccc1C1C(C(=O)C(C)C)=C(O)C(=O)N1c1ccc(-c2ccc(C)s2)cc1` (stereo not drawn) [Compound I-569] has an IC50 of 35 nM.
In the case of `Cc1cc(-c2ccc(N3C(=O)C(O)=C(C(=O)C(C)C)C3c3cccnc3OCCCO)cc2)cs1` (stereo not drawn) [Compound I-570], the IC50 is reported as 70 nM.
`COCCCOc1ncccc1C1C(C(=O)C(C)C)=C(O)C(=O)N1c1ccc(-c2csc(C)c2)cc1` (stereo not drawn) [Compound I-571] showed an IC50 of 60 nM.
`Cc1ccc(-c2ccc(N3C(=O)C(O)=C(C(=O)CC(C)C)C3c3cccnc3C(N)=O)cc2)s1` (stereo not drawn) [Compound I-572] showed an IC50 of 171 nM.
In the case of `CNC(=O)c1ncccc1C1C(C(=O)CC(C)C)=C(O)C(=O)N1c1ccc(-c2ccc(C)s2)cc1` (stereo not drawn) [Compound I-573], the IC50 is reported as 123 nM.
`Cc1ccc(-c2ccc(N3C(=O)C(O)=C(C(=O)CC(C)C)C3c3cccnc3C(=O)N(C)C)cc2)s1` (stereo not drawn) [Compound I-574] gave an IC50 of 280 nM.
For `CCN(C)C(=O)c1ncccc1C1C(C(=O)CC(C)C)=C(O)C(=O)N1c1ccc(-c2ccc(C)s2)cc1` (stereo not drawn) [Compound I-575], the IC50 was 252 nM.
In the case of `Cc1ccc(-c2ccc(N3C(=O)C(O)=C(C(=O)CC(C)C)C3c3cccnc3C(=O)NN(C)C)cc2)s1` (stereo not drawn) [Compound I-576], the IC50 is reported as 237 nM.

— patent US8575197B2, “Pyrolinone derivative and pharmaceutical composition comprising the same” (Shionogi & Co., Ltd., priority 2008, dated 2013)
